Experiment [1] in a line: glutathione binding assay. Conditions: 5 mM glutathione, 10 μM Btk inhibitor, room temperature, HPLC. The protocol:
A calculated value (e.g (1/Btk IC50)/Glutathione conjugation rate) as shown in the Table 2) is used to compare compounds for their ratio between potency at inhibiting their target and their non-specific binding to other SH groups, such as those in glutathione. […] Calculated ratios such as these are used to quantitatively compare different compounds and select compounds for further study.
For the glutathione binding assays, 5 mM glutathione, 10 μM Btk inhibitor in DMSO (10 μL) and 6 equivalents of N′N′ Diisopropyl ethyl amine were combined in 1 mL potassium phosphate buffer. The mixture was incubated for 0, 15, 60 minutes at room temperature and the reaction was stopped with 10 equivalents of formic acid. 50 μL of each reaction mixture was injected on HPLC (Mobil Phase A: 0.2% formic acid in water, Mobile Phase B: 0.2% formic acid in acetonitrile, HPLC Column: Metasil Basic 3μ, 150×4.6 mm, 10% B, Gradient: 10% to 90% B, Detection: UV/Vis […]). Rate of reaction was reported as nmole GSH conjugate conversion per minute from the normalized ratio for area under the curve from HPLC chromatograms for both GSH conjugate and the parent.

Experiment [2] concerns the target BTK (Homo sapiens (Human), UniProt Q06187). Description: in vitro HotSpot kinase assay, BTK. Conditions: Table 2, 1 uM ATP, one hour incubation with inhibitor. The class given is biochemical.
Experiment [3] deals with EGFR (Homo sapiens (Human), UniProt P00533). Description: in vitro HotSpot kinase assay, EGFR. The class given is biochemical. As to conditions: Table 2, 1 uM ATP, one hour incubation with inhibitor.
In experiment [4] the target is JAK3 (Homo sapiens (Human), UniProt P52333). Description: in vitro HotSpot kinase assay, JAK3. Format: biochemical. Conditions: Table 2, 1 uM ATP, one hour incubation with inhibitor.
Sequence of JAK3 (P52333 whole entry, species assumed): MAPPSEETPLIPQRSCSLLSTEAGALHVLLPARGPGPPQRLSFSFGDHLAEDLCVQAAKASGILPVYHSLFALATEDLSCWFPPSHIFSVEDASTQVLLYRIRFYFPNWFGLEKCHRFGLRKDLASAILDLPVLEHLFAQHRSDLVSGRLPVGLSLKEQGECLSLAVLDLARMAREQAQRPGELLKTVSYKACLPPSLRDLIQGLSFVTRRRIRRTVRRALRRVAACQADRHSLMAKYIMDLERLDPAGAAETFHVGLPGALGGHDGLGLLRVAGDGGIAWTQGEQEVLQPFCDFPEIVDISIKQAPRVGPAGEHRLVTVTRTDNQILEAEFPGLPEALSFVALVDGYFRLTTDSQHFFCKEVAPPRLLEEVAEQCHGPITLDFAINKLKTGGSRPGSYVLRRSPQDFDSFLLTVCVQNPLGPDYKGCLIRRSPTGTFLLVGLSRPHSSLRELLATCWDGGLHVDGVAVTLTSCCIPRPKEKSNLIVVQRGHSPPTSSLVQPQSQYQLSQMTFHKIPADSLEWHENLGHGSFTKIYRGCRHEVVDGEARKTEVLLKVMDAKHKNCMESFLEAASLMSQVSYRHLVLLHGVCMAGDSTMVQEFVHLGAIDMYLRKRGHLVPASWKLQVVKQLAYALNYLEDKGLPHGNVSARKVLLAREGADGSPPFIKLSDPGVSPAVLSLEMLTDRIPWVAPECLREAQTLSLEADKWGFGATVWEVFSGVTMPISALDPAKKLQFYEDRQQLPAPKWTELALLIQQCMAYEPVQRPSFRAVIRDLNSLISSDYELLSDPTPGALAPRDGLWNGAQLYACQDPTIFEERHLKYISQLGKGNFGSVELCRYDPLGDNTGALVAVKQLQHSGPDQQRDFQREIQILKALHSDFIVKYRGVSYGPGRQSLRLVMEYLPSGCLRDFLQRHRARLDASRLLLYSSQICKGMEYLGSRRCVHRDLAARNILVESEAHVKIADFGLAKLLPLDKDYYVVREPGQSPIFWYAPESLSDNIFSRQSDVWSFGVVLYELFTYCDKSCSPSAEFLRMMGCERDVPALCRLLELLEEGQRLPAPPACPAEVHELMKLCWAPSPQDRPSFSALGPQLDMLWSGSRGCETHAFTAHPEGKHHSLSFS
For experiment [5], the target named is ITK (Homo sapiens (Human), UniProt Q08881). Description: in vitro HotSpot kinase assay, ITK. Format: biochemical. Conditions: Table 2, 1 uM ATP, one hour incubation with inhibitor.
Sequence of ITK (Q08881 whole entry, species assumed): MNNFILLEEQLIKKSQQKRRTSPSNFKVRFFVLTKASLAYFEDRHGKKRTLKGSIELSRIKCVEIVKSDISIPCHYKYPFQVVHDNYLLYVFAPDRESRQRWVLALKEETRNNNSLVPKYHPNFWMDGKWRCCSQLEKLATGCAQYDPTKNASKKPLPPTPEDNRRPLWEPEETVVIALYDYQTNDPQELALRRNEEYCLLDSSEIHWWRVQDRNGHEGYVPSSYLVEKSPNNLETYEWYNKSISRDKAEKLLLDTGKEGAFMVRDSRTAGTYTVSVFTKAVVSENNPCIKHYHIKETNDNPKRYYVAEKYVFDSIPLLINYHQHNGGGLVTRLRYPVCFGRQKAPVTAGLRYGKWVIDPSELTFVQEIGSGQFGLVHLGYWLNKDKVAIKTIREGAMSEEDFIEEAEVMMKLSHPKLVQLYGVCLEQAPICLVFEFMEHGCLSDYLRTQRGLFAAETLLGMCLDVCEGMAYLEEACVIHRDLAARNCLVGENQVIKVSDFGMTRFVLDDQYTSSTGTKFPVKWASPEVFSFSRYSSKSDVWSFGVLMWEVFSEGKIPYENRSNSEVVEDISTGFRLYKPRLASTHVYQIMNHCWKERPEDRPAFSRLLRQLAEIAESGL
Experiment [6] deals with lymphoma cell line DOHH2. Description: DOHH2 cell proliferation assay (Alamar Blue). The class given is cell-based. On the procedure: After 72 hours, cell number was measured using Alamar Blue using manufacturer's protocol. A dilution series of untreated cells was run in parallel to verify that the Alamar Blue assay reliably reflected cell number and that growth conditions were not limiting. […] GI50 values were confirmed in two or more separate experiments for each cell line.
Analogs are generated that are Btk inhibitors and that are cytotoxic to the lymphoma cell line DOHH2. For the DOHH2 cell proliferation assay, cells were seeded in 96-well plates in standard growth media (RPMI+10% fetal calf serum) and compounds were added in a 9-point dilution series ranging from 10 uM to 0.04 uM with DMSO at 0.1% final concentration in all wells. After 72 hours, cell number was measured using Alamar Blue using manufacturer's protocol. A dilution series of untreated cells was run in parallel to verify that the Alamar Blue assay reliably reflected cell number and that growth conditions were not limiting.

Experiment [7] deals with LCK (Homo sapiens (Human), UniProt P06239). The experiment in a line: in vitro HotSpot kinase assay, LCK. Conditions: Table 2, 1 uM ATP, one hour incubation with inhibitor. Format: biochemical.
Sequence of LCK (P06239 whole entry, species assumed): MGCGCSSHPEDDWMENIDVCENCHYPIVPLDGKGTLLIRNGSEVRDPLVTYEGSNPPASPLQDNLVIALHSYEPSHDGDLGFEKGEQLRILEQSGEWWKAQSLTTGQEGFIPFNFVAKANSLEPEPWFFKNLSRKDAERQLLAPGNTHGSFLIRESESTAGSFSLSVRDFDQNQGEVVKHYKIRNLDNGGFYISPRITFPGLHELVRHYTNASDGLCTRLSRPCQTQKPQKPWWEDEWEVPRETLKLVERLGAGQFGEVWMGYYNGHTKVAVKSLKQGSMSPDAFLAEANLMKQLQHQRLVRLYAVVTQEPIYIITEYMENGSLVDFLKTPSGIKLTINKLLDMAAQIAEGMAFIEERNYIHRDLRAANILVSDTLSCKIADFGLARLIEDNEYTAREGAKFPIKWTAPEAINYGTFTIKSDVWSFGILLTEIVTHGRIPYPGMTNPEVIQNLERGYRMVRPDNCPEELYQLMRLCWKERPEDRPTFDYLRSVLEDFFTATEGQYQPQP

Some results are limits rather than exact numbers.

The term IC50 denotes the concentration that inhibits the measured activity by half. Broadly, the GI50 is the concentration at which growth is held to half of that of the control. Higher therefore signals lower sensitivity of the cells.

Sequence of BTK (Q06187 whole entry): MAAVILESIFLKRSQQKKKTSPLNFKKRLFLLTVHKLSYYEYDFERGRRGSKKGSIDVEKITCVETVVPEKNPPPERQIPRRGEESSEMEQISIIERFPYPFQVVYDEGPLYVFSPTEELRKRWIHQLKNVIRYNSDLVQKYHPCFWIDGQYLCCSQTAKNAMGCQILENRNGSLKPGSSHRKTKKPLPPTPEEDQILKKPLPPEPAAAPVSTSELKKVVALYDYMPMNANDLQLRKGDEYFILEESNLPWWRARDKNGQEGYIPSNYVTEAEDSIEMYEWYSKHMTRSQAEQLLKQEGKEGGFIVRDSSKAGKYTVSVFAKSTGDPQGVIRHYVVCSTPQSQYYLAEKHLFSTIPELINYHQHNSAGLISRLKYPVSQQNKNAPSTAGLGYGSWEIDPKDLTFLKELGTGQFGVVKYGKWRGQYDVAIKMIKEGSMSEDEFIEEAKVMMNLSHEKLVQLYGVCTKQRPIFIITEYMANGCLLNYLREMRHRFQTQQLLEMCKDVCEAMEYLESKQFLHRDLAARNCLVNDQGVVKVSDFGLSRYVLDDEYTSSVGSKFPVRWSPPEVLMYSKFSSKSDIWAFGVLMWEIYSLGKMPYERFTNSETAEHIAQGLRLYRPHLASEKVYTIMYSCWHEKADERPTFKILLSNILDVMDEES

For `Nc1ncnc2c1c(-c1ccc(Oc3ccccc3)cc1)nn2C1CCCN(C(=O)/C=C/CN2CCOCC2)C1` (stereo not drawn) [Compound 5, (E)-1-(3-(4-amino-3-(4-phenoxyphenyl)-1H-pyrazolo[3,4-d]pyrimidin-1-yl)piperidin-1-yl)-4-morpholinobut-2-en-1-one], the “Glutathione Conj Rate” value in experiment [1] is recorded as 0.004 nmol/min. The results for the IC50 in experiment [2] and in experiment [3] were 5.6 nM and 326 nM, respectively.

With `C=CC(=O)N1CCC(n2nc(-c3ccc(Oc4ccccc4)cc3)c3c(N)ncnc32)CC1` [Compound 6], the “Glutathione Conj Rate” value in experiment [1] is recorded as 0.39 nmol/min. In addition, the IC50 in experiment [2] was found to be 3.1 nM.

Consider `C=CC(=O)N[C@H]1CC[C@H](n2nc(-c3ccc(Oc4ccccc4)cc3)c3c(N)ncnc32)CC1` [Compound 10, N-((1r,4r)-4-(4-amino-3-(4-phenoxyphenyl)-1H-pyrazolo[3,4-d]pyrimidin-1-yl)cyclohexyl)acrylamide], for which the IC50 in experiment [4] was greater than 10000 nM; in experiment [5], 1950 nM. The GI50 in experiment [6] (Homo sapiens, DOHH-2, 72 hours) was less than 30 nM.

With `CN(C)C/C=C/C(=O)N1CCC[C@@H]1Cn1nc(-c2ccc(Oc3ccccc3)cc2)c2c(N)ncnc21` [Compound 11, (E)-1-((R)-2-((4-amino-3-(4-phenoxyphenyl)-1H-pyrazolo[3,4-d]pyrimidin-1-yl)methyl)pyrolidin-1-yl)-4-(dimethylamino)but-2-en-1-one], the “Glutathione Conj Rate” value in experiment [1] stood at 0.004525 nmol/min. The IC50 in experiment [2] was 0.92 nM; in experiment [4], greater than 10000 nM; in experiment [3], 18.9 nM; in experiment [7], 2.43 nM; in experiment [5] it was 6890 nM. This molecule also registered a GI50 in experiment [6] (Homo sapiens, DOHH-2, 72 hours) greater than 10000 nM.

`C=CC(=O)N1CCC[C@@H]1Cn1nc(-c2ccc(Oc3ccccc3)cc2)c2c(N)ncnc21` [Compound 13, 1-((R)-2-((4-amino-3-(4-phenoxyphenyl)-1H-pyrazolo[3,4-d]pyrimidin-1-yl)methyl)pyrrolidin-1-yl)prop-2-en-1-one]: the IC50 turned out to be 0.67 nM in experiment [2]; 13000 nM in experiment [4]; 18.8 nM in experiment [3]; 1.56 nM in experiment [7]; 3010 nM in experiment [5]. This molecule also yielded a GI50 in experiment [6] (Homo sapiens, DOHH-2, 72 hours) of 240 nM.

`C=CC(=O)N1CCC[C@H]1Cn1nc(-c2ccc(Oc3ccccc3)cc2)c2c(N)ncnc21` [Compound 14, 1-((S)-2-((4-amino-3-(4-phenoxyphenyl)-1H-pyrazolo[3,4-d]pyrimidin-1-yl)methyl)pyrrolidin-1-yl)prop-2-en-1-one]: the IC50 in experiment [2] came to 0.39 nM; in experiment [4] it was 1460 nM; in experiment [3] it was 2.3 nM; in experiment [7], 9.24 nM; in experiment [5], 592 nM. The molecule also had a GI50 in experiment [6] (Homo sapiens, DOHH-2, 72 hours) of 370 nM.

With `CC#CC(=O)N1CCC[C@@H]1Cn1nc(-c2ccc(Oc3ccccc3)cc2)c2c(N)ncnc21` [Compound 15, 1((R)-2-((4-amino-3-(4-phenoxyphenyl)-1H-pyrazolo[3,4-d]pyrimidin-1-yl)methyl)pyrrolidin-1-yl)but-2-yn-1-one], the IC50 in experiment [2] is 4.16 nM; in experiment [4] it was greater than 10000 nM; in experiment [3], 289 nM; in experiment [7], 5.9 nM; in experiment [5], 21100 nM. This molecule also gave a GI50 in experiment [6] (Homo sapiens, DOHH-2, 72 hours) of 590 nM.

Turning to `CC#CC(=O)N1CCC[C@H]1Cn1nc(-c2ccc(Oc3ccccc3)cc2)c2c(N)ncnc21` [Compound 16, 1-((S)-2-((4-amino-3-(4-phenoxyphenyl)-1H-pyrazolo[3,4-d]pyrimidin-1-yl)methyl)pyrrolidin-1-yl)but-2-yn-1-one], the IC50 is 3.14 nM in experiment [2]; greater than 10000 nM in experiment [4]; 2810 nM in experiment [3]; 3.82 nM in experiment [7]; greater than 10000 nM in experiment [5]. In experiment [6] (Homo sapiens, DOHH-2, 72 hours), this molecule gave a 50% growth inhibitory concentration (GI50) of 210 nM.

On to `CC#CC(=O)N1CCC[C@@H](n2nc(-c3ccc(Oc4ccccc4)cc3)c3c(N)ncnc32)C1` [Compound 17, 1-((R)-3-(4-amino-3-(4-phenoxyphenyl)-1H-pyrazolo[3,4-d]pyrimidin-1-yl)piperidin-1-yl)but-2-yn-1-one], for which, in experiment [1], the “Glutathione Conj Rate” value is reported as 0.0243 nmol/min. The IC50 in experiment [2] was 2 nM; in experiment [4], greater than 10000 nM; in experiment [3], 435 nM; in experiment [7] it was 2.07 nM; in experiment [5], 2330 nM. Besides, the GI50 in experiment [6] (Homo sapiens, DOHH-2, 72 hours) is 210 nM.

For the molecule `CN(C)C/C=C/C(=O)N[C@H]1CC[C@H](n2nc(-c3ccc(Oc4ccccc4)cc3)c3c(N)ncnc32)CC1` [Compound 18], the IC50 in experiment [2] is 1.38 nM; in experiment [4], greater than 10000 nM; in experiment [3] it was 22.5 nM; in experiment [7], 0.76 nM; in experiment [5] it was 2540 nM. This molecule displayed a GI50 in experiment [6] (72 hours) of less than 30 nM.

In the case of `C=CC(=O)N(C)CCn1nc(-c2ccc(Oc3ccccc3)cc2)c2c(N)ncnc21` [Compound 19, N-(2-(4-amino-3-(4-phenoxyphenyl)-1H-pyrazolo[3,4-d]pyrimidin-1-yl)ethyl)-N-methylacrylamide], the IC50 in experiment [2] was 1.58 nM; in experiment [4], 6000 nM; in experiment [7] it was 6.62 nM; in experiment [5] it was 535 nM. For the same molecule, in experiment [6] (Homo sapiens, DOHH-2, 72 hours), the GI50 was 690 nM.

Consider `Nc1ncnc2c1c(-c1ccc(Oc3ccccc3)cc1)nn2C1CCN(C(=O)/C=C/CN2CCOCC2)CC1` [Compound 20], for which the half-inhibitory concentration (IC50) in experiment [2] was 4.07 nM; in experiment [4], greater than 10000 nM; in experiment [3], 304 nM; in experiment [7], 98.6 nM; in experiment [5], 7990 nM. The molecule further had a GI50 in experiment [6] (72 hours) of 390 nM.

As for `Nc1ncnc2c1c(-c1ccc(Oc3ccccc3)cc1)nn2C[C@@H]1CCCN1C(=O)/C=C/CN1CCOCC1` [Compound 21], the IC50 in experiment [2] is 4.15 nM; in experiment [4], greater than 10000 nM; in experiment [3], 6240 nM; in experiment [7], 1350 nM; in experiment [5], greater than 10000 nM. In experiment [6] (72 hours), this molecule yielded a GI50 of 1530 nM.

On to `CC#CC(=O)N[C@H]1CC[C@@H](n2nc(-c3ccc(Oc4ccccc4)cc3)c3c(N)ncnc32)CC1` [Compound 22, N-((1s,4s)-4-(4-amino-3-(4-phenoxyphenyl)-1H-pyrazolo[3,4-d]pyrimidin-1-yl)cyclohexyl)but-2-ynamide], for which the “Glutathione Conj Rate” value in experiment [1] stood at 0.014 nmol/min. Moreover, the IC50 is 1.57 nM in experiment [2]; greater than 10000 nM in experiment [4]; 156 nM in experiment [3]; 22.1 nM in experiment [7]; 3690 nM in experiment [5]. Moreover, the GI50 in experiment [6] (72 hours) is less than 40 nM.

With `C=CC(=O)NCCn1nc(-c2ccc(Oc3ccccc3)cc2)c2c(N)ncnc21` [Compound 23, N-(2-(4-amino-3-(4-phenoxyphenyl)-1H-pyrazolo[3,4-d]pyrimidin-1-yl)ethyl)acrylamide], the IC50 in experiment [2] turned out to be 0.32 nM; in experiment [4] it was 3310 nM; in experiment [3] it was 70.5 nM; in experiment [7], 208 nM; in experiment [5] it was 830 nM. In experiment [6] (Homo sapiens, DOHH-2, 72 hours), this molecule came in with a GI50 of 110 nM.

Consider `Nc1ncnc2c1c(-c1ccc(Oc3ccccc3)cc1)nn2[C@@H]1CCCN(C(=O)/C=C/CN2CCOCC2)C1` [Compound 24, (E)-1-((R)-3-(4-amino-3-(4-phenoxyphenyl)-1H-pyrazolo[3,4-d]pyrimidin-1-yl)piperidin-1-yl)-4-morpholinobut-2-en-1-one], for which the IC50 in experiment [2] amounted to 0.89 nM; in experiment [4], 9080 nM; in experiment [3] it was 384 nM; in experiment [7], 235 nM; in experiment [5] it was 476 nM. Halving of growth in experiment [6] (Homo sapiens, DOHH-2, 72 hours) (GI50) required 440 nM.

Turning to `Nc1ncnc2c1c(-c1ccc(Oc3ccccc3)cc1)nn2[C@H]1CC[C@@H](NC(=O)/C=C/CN2CCOCC2)CC1` [Compound 25, (E)-N-((1s,4s)-4-(4-amino-3-(4-phenoxyphenyl)-1H-pyrazolo[3,4-d]pyrimidin-1-yl)cyclohexyl)-4-morpholinobut-2-enamide], the IC50 was 3.48 nM in experiment [2]; greater than 10000 nM in experiment [4]; 273 nM in experiment [3]; 25.8 nM in experiment [7]; greater than 10000 nM in experiment [5]. This molecule registered a GI50 in experiment [6] (72 hours) of 50 nM.

For “(E)-4-(N-(2-hydroxyethyl)-N-methylamino)-1-(3-(4-phenoxyphenyl)-1H-pyrazolo[3,4-d]pyrimidin-1-yl)piperidin-1-yl)but-2-en-1-one [Compound 3]”, the figures for the 50% inhibitory concentration (IC50) in experiment [2] and in experiment [3] were 21 nM and 74.5 nM, respectively.
